Experimental data reported in patent US20170313828A1, “IN SITU-FORMING OF DENDRIMER HYDROGELS USING MICHAEL-ADDITION REACTION” (Virginia Commonwealth University, priority 2016, published 2017).

Assay: In vitro 5-FU release kinetics
Type: physicochemical
Conditions: from hydrogel of 1 wt % PAMAM G5-(NH2)128 and PEG diacrylate575 (FIG. 9)
Method: In Vitro Drug Release Kinetics. Drug release was performed on 5-FU loaded into DH-G5-0.5% (5-FU/DH-G5-0.5%). Briefly, Free 5-FU (300 μg) in PBS or DH-G5-0.5% containing 300 μg of 5-FU was transferred to dialysis bags (MWCO=500-1000 Da) and suspended in 30 mL of PBS in 50-mL centrifuge tubes. The tubes were maintained at 37° C. At predetermined time intervals up to 24 h, 1 mL of medium outside the dialysis bag was withdrawn, and the amount of drug released into the medium was analyzed on HPLC against a standard curve of 5-FU. After each sampling, 1 mL of fresh PBS was added to maintain a constant volume and sink condition. All experiments were performed in triplicate.

With `O=c1[nH]cc(F)c(=O)[nH]1` [fluorouracil] the “drug released in the first 3 hours” value was “about 70%”.
